Source: PubChem BioAssay (NCI)
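Briefly, cells in 96-well plates were exposed to five compound concentrations for 48 h, and endpoints were estimated by linear interpolation. Here, GI50 denotes the concentration required for 50% inhibition of growth. TGI: total growth inhibition.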

Key:
Test in all cases: inhibition of tumour cell growth, NCI panel, 48 h
[1] = test system: UACC-62 melanoma
[2] = test system: DU-145 prostate
[3] = test system: PC-3 prostate
[4] = test system: UO-31 renal
[5] = test system: MDA-MB-435
[6] = test system: MDA-N
[7] = test system: NCI-H522 lung
[8] = test system: 786-0 renal
[9] = test system: ACHN renal
[10] = test system: T-47D breast
[11] = test system: CAKI-1 renal
[12] = test system: SNB-75 CNS
[13] = test system: NCI-H226 lung

SMILES | TGI [1] [µM] | TGI [2] [µM] | TGI [3] [µM] | TGI [4] [µM] | TGI [5] [µM] | TGI [6] [µM] | TGI [7] [µM] | TGI [8] [µM] | TGI [9] [µM] | TGI [10] [µM] | TGI [11] [µM] | TGI [12] [µM] | TGI [13] [µM] | GI50 [1] [µM] | GI50 [2] [µM] | GI50 [3] [µM] | GI50 [12] [µM] | GI50 [9] [µM] | GI50 [10] [µM] | GI50 [11] [µM]
CC[C@]12C=CCN3CC[C@@]4(c5cc(Br)c(OC)cc5N(C)[C@H]4[C@@](O)(C(=O)N[C@@H](Cc4ccc(O)cc4)C(=O)OC)[C@@H]1O)[C@@H]32 | 33.9 | > 100 | > 100 | 98.6 | 35.8 | 49.1 | 54.4 | > 100 | > 100 | > 100 | 77.9 | – | – | – | – | – | – | – | – | –
C[C@]12CC[C@H](O)CC1=CC[C@@H]1[C@@H]2CC[C@]2(C)C(=N/O)/C(=C/c3ccc([N+](=O)[O-])cc3)C[C@@H]12 | 28.6 | 21.6 | 14.3 | 24.7 | 40.8 | 28.4 | 16.4 | 7.67 | 15.1 | 30.5 | 32.9 | 18 | 6.59 | – | – | – | – | – | – | –
O=C(c1cc2c(c3ccccc13)NCCN=C2C(F)(F)F)C(F)(F)F | – | > 100 | 33.5 | > 100 | > 100 | > 100 | 72.7 | 84.8 | 68.3 | > 100 | > 100 | > 100 | 47.1 | – | – | – | – | – | – | –
CC(=O)NNC(=O)C1CCCCN1 (stereo unspecified) | – | > 100 | > 100 | – | > 100 | > 100 | > 100 | > 100 | > 100 | – | > 100 | – | > 100 | – | – | – | – | – | – | –
O=C1C(Cl)C(c2cc3cc(Br)ccc3nc2Cl)N1c1ccc(Cl)cc1 (stereo unspecified) | 10.2 | 19.7 | > 25 | 3.28 | 17.7 | 15.9 | 8.25 | 9.22 | 11.2 | 23.8 | 9.3 | 19.5 | 12.3 | – | – | – | – | – | – | –
O=C(COc1ccc(Cl)c(Cl)c1)N(Cc1ccccc1)Cc1ccc[n+](Cc2ccc(Cl)cc2S(=O)(=O)F)c1 | > 100 | > 100 | > 100 | > 100 | > 100 | – | > 100 | > 100 | > 100 | > 100 | > 100 | > 100 | > 100 | – | – | – | – | – | – | –
CC(C)(C)OC(=O)NC1CCC(C(C)(C)C)CC1 (stereo unspecified) | > 100 | – | – | > 100 | – | – | > 100 | – | – | – | – | > 100 | > 100 | – | – | – | – | – | – | –
Br/C(=N\Nc1nn[nH]n1)c1ccncc1 | > 100 | > 100 | > 100 | – | > 100 | > 100 | > 100 | > 100 | > 100 | > 100 | > 100 | > 100 | > 100 | – | – | – | – | – | – | –
CCCC(=O)O.CCCC(=O)O.CCCC(=O)O.CCCC(=O)O.[Rh].[Rh] | 0.142 | 0.491 | 0.47 | – | – | – | – | – | 0.212 | 0.0985 | 0.106 | 2.62 | – | 0.0343 | 0.181 | 0.0618 | 0.423 | 0.0451 | 0.0312 | 0.035
c1ccc(C[N+]23CN4CN(CN(C4)C2)C3)cc1 | 32.1 | 91.8 | 35.7 | 43.7 | 45.5 | > 100 | > 100 | 46.8 | 87.9 | 87.4 | > 100 | > 100 | > 100 | – | – | – | – | – | – | –
O=C(Oc1ccc(Cl)cc1[N+](=O)[O-])c1ccccc1 | > 100 | – | – | > 100 | – | – | – | – | > 100 | – | – | > 100 | > 100 | – | – | – | – | – | – | –
O=C1OC2CC=CC1C2 (stereo unspecified) | > 100 | – | – | > 100 | – | – | > 100 | – | – | – | – | > 100 | > 100 | – | – | – | – | – | – | –
Cc1cc(C)nc(SCCc2cccc[n+]2C)n1 | > 100 | > 100 | > 100 | > 100 | > 100 | > 100 | > 100 | > 100 | > 100 | > 100 | > 100 | > 100 | > 100 | – | – | – | – | – | – | –
COc1cc(S(=O)(=O)Nc2nc(-c3ccc(N4C(=O)/C(=C/c5ccccc5[N+](=O)[O-])N=C4c4ccccc4)cc3)cs2)ccc1Cl | 92.8 | > 100 | > 100 | > 100 | > 100 | > 100 | > 100 | > 100 | > 100 | > 100 | > 100 | > 100 | > 100 | – | – | – | – | – | – | –
COc1c(OC/C=C(\C)CCC=C(C)C)ccc2ccc(=O)oc12 | > 100 | > 100 | > 100 | > 100 | > 100 | > 100 | > 100 | > 100 | > 100 | > 100 | > 100 | > 100 | – | – | – | – | – | – | – | –
Cl/C(=C\C=Nc1ccc(I)cc1)c1ccc2ccccc2c1 | 34.3 | > 61.4 | > 100 | > 55.9 | 28 | – | > 100 | 40.7 | 29.9 | 61.9 | 29 | > 79.9 | > 59.7 | – | – | – | – | – | – | –
C=C1C(=O)OC2CC1CCC1(C)OC1CCC(C)=CCCC2(C)O (stereo unspecified) | 10 | – | – | 18.7 | – | – | 3.69 | – | – | – | 7.7 | 19.5 | 9.17 | – | – | – | – | – | – | –
Cn1c2c3ccc(Cl)cc3nc-2c(Cl)c2ccccc21 | 50.8 | 33.4 | 38.1 | 32.6 | 38.2 | 46.2 | 33.6 | 33.9 | 32 | > 100 | 32.1 | 55.1 | 62.5 | – | – | – | – | – | – | –
C=CCNS(=O)(=O)c1ncnc2nc[nH]c12 | > 100 | > 100 | > 100 | > 100 | > 100 | > 100 | > 100 | > 100 | > 100 | > 100 | > 100 | > 100 | > 100 | – | – | – | – | – | – | –
O=C1OCc2cc3cc4c(cc3c(-c3ccc5c(c3)OCO5)c21)OCO4 (tested in a mixture with another compound) | 68 | 55.2 | > 100 | 63.8 | > 100 | 19.2 | – | – | – | > 100 | 86.7 | – | 29.3 | – | – | – | – | – | – | –
COc1cc(/C=C/C(=O)CC(=O)/C=C/c2ccc(O)c(OC)c2)ccc1O | 20.6 | 29.7 | 26 | 24.8 | 12.1 | – | 16.7 | 10.8 | 28.9 | 46.9 | 25.1 | 18 | 53.7 | – | – | – | – | – | – | –
O=C(Nc1ccc(Cl)c(Cl)c1)N1N=C2c3ccccc3CCC2C1c1ccc(Cl)cc1 (stereo unspecified) | > 100 | > 100 | > 100 | > 100 | > 100 | > 100 | > 100 | > 100 | > 100 | > 100 | > 100 | > 100 | > 100 | – | – | – | – | – | – | –
C=CCSSCC=C | > 100 | > 100 | > 100 | > 100 | > 84.7 | > 80.2 | > 100 | > 56.5 | > 100 | > 100 | > 100 | > 100 | > 92.6 | – | – | – | – | – | – | –
COc1ccc(NC(=S)N/N=C(\C)c2nc3ncccc3[nH]2)cc1 | 73.2 | > 100 | 45.2 | 12 | > 100 | > 100 | 37.5 | > 100 | > 100 | 92.4 | > 100 | 70.6 | 21.7 | – | – | – | – | – | – | –
